Data reported in US10919844B2, “Antibacterials and/or modulators of biofilm formation and methods of using the same” (Indiana University Research and Technology Corporation, priority 2015, dated 2021).
Entries after “also recorded” stand apart in the source; their conditions may differ. One block for each molecule: values may come before it.

Legend:
Pseudomonas aeruginosa = assay: P. aeruginosa biofilm formation assay (K357 biofilm assay, crystal violet OD readout); format: cell-based; details: for activity in the Biofilm Assay: FIG. 23; for activity of purified sample in the biofilm assay: FIGS. 26-28; for activity in preliminary screens: FIG. 1, compounds in red
Text: A straightforward biological assay was developed to provide for the study these important bacterial biofilm communities. This assay also provided an efficient means for screening for compounds that have an effect on bacterial growth and/or biofilm formation.
The racemic amino acid derivatives 1 (synthesized in row A of each Bill-Board) are then screened for biological activity (antibacterial activity in a Kirby-Bauer disc plate assay) and/or K357 laboratory (assay for biofilm formation by Pseudomonas aeruginosa).
Referring now to FIG. 3, reproducible P. aeruginosa Biofilm Assays were carried out using newly synthesized twenty-one “unnatural” amino acids. See George A. O'Toole, Microtiter Dish Biofilm Formation Assay, J. VIS EXP. 2011; (47): 2437, disclosures of which are incorporated by reference in its entirety to the extent that they are not inconsistent with the explicit teachings of this specification.
Referring to FIGS. 34-35, all newly synthesized compounds prepared according to the schemes described above were assayed for biofilm formation in multiplicate 24 well plates at a screening dose of 20 μg/mL using crystal violet optical density (OD) readings as the readout. Results were expressed as % biofilm formation relative to a control (control=bacteria alone=100% biofilm formation). The procedure for the biofilm assay was the same as that used by students in the K357 biofilm laboratory.
Referring now to FIGS. 36-38, all compounds assayed in either 96 well or 24 well plates at a screening dose of either 20 or 40 μg/mL, using a biofilm assay with crystal violet optical density (OD) readings as the readout. Results were expressed as % biofilm formation (control=bacteria alone=100% biofilm formation). The procedure for the biofilm assay was the same as that used by students in the K357 biofilm laboratory.

[1] = water-solubility noted during extractive work-up; format: physicochemical; details: basic aqueous phase, extraction with dichloromethane

Structure (SMILES): NC(Cc1ccc(F)c(F)c1)C(=O)O (stereo not shown) [3,4-F2, 2-Amino-3-(3,4-difluorophenyl)propanoic acid]
activity in the Biofilm Assay (Pseudomonas aeruginosa): showed activity | potency in modulating/inhibiting biofilm formation (SAR studies) (Pseudomonas aeruginosa): potent activity | activity of purified sample in the biofilm assay (Pseudomonas aeruginosa): active in a dose dependent manner

Structure (SMILES): NC(=O)C(N)Cc1ccc(F)cc1 (stereo not shown) [4-fluorophenylalanine amide, 2-Amino-3-(4-fluorophenyl)propanamide]
potency in modulating/inhibiting biofilm formation (SAR studies) (Pseudomonas aeruginosa): very potent inhibitor

Structure (SMILES): NC(Cc1ccccc1F)C(=O)O (stereo not shown) [Compound 2-F, 2-Amino-3-(2-fluorophenyl)propanoic acid]
activity in preliminary screens (Pseudomonas aeruginosa): showed activity | activity in the Biofilm Assay (Pseudomonas aeruginosa): showed activity | potency in modulating/inhibiting biofilm formation (SAR studies) (Pseudomonas aeruginosa): potent activity | activity of purified sample in the biofilm assay (Pseudomonas aeruginosa): active in a dose dependent manner | activity of un-purified samples in the K357 biofilm assay (Pseudomonas aeruginosa): active

Structure (SMILES): NC(Cc1cccc(F)c1)C(=O)O (stereo not shown) [Compound 3-F, 2-Amino-3-(3-fluorophenyl)propanoic acid]
activity in preliminary screens (Pseudomonas aeruginosa): showed activity | activity in the Biofilm Assay (Pseudomonas aeruginosa): showed activity | potency in modulating/inhibiting biofilm formation (SAR studies) (Pseudomonas aeruginosa): potent activity | activity of purified sample in the biofilm assay (Pseudomonas aeruginosa): active in a dose dependent manner

Structure (SMILES): NC(Cc1ccc(F)cc1)C(=O)O (stereo not shown) [Compound 4-F, 2-Amino-3-(4-fluorophenyl)propanoic acid]
activity in preliminary screens (Pseudomonas aeruginosa): showed activity | activity in the Biofilm Assay (Pseudomonas aeruginosa): showed activity | potency in the biofilm assay compared with tobramycin (Pseudomonas aeruginosa; FIG. 24, comparator tobramycin): as potent as tobramycin | potency in modulating/inhibiting biofilm formation (SAR studies) (Pseudomonas aeruginosa): potent activity | activity of purified sample in the biofilm assay (Pseudomonas aeruginosa): active in a dose dependent manner; also recorded: confirmed this activity | activity of un-purified samples in the K357 biofilm assay (Pseudomonas aeruginosa): active

Structure (SMILES): N[C@@H](Cc1ccc(I)cc1)C(=O)O [Compound 4-I]
activity in preliminary screens (Pseudomonas aeruginosa): showed activity

water-solubility [1]: Appreciable water-solubility
Structure (SMILES): NC(Cc1ccc(F)cc1)C(=O)NCCN1CCOCC1 (stereo not shown) [Compound 5n, 2-Amino-3-(4-fluorophenyl)-N-(2-morpholinoethyl)propanamide]

water-solubility [1]: Appreciable water-solubility
Structure (SMILES): NC(Cc1ccc(F)cc1)C(=O)N1CCCC1 (stereo not shown) [Compound 5p, 2-Amino-3-(4-fluorophenyl)-1-(pyrrolidin-1-yl)propan-1-one]
